From PubChem BioAssay AID248 (DTP/NCI, 2004)
Several values for one entry are separate records, joined by “and”; a condition that tells them apart may be missing. Equal entries are not always repeated. Inconclusive results and toxic doses are left out. Cut-off read from the data, not from the text of the source: active = T/C of 150% or more; inactive = T/C below 125%.

System: L1210 leukemia ip in BDF1 mice, survival T/C
Experiment: NCI In Vivo Anticancer Drug Screen. Data for tumor model L1210 Leukemia (intraperitoneal) in B6D2F1 (BDF1) mice
Settings: endpoint: mean survival time, higher = longer survival
Outline: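 Antitumor effect is assessed in tumor-bearing animals. Survival in the compound arm is compared with a vehicle-dosed control arm and expressed as their quotient.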

[1] = dose: 100.0 mg/kg/injection, schedule: Q01DX009 (ip), vehicle: Klucel (hydroxypropylcellulose) (HPC)
[2] = dose: 200.0 mg/kg/injection, schedule: Q01DX009 (ip), vehicle: Klucel (hydroxypropylcellulose) (HPC)
[3] = dose: 400.0 mg/kg/injection, schedule: Q01DX009 (ip), vehicle: Klucel (hydroxypropylcellulose) (HPC)
[4] = dose: 100.0 mg/kg/injection, schedule: Q01DX001 (ip), vehicle: Klucel (hydroxypropylcellulose) (HPC)
[5] = dose: 200.0 mg/kg/injection, schedule: Q01DX001 (ip), vehicle: Klucel (hydroxypropylcellulose) (HPC)
[6] = dose: 400.0 mg/kg/injection, schedule: Q01DX001 (ip), vehicle: Klucel (hydroxypropylcellulose) (HPC)
[7] = dose: 75.0 mg/kg/injection, schedule: Q04DX003 (ip), vehicle: saline
[8] = dose: 100.0 mg/kg/injection, schedule: Q01DX009 (ip), vehicle: saline with Tween-80
[9] = dose: 100.0 mg/kg/injection, schedule: Q04DX003 (ip), vehicle: saline with Tween-80
[10] = dose: 200.0 mg/kg/injection, schedule: Q01DX009 (ip), vehicle: saline with Tween-80
[11] = dose: 200.0 mg/kg/injection, schedule: Q04DX003 (ip), vehicle: saline with Tween-80
[12] = dose: 400.0 mg/kg/injection, schedule: Q01DX009 (ip), vehicle: saline with Tween-80
[13] = dose: 400.0 mg/kg/injection, schedule: Q04DX003 (ip), vehicle: saline with Tween-80
[14] = dose: 100.0 mg/kg/injection, schedule: Q01DX009 (ip), vehicle: saline
[15] = dose: 100.0 mg/kg/injection, schedule: Q04DX003 (ip), vehicle: saline
[16] = dose: 200.0 mg/kg/injection, schedule: Q01DX009 (ip), vehicle: saline
[17] = dose: 400.0 mg/kg/injection, schedule: Q01DX009 (ip), vehicle: saline

Measured: T/C

O=C(Nc1cccc2ccccc12)OCCF
inactive: dose: 5.0 mg/kg/injection, schedule: Q01DX001 (ip), vehicle: carboxymethylcellulose (CMC) 101 % of control | dose: 10.0 mg/kg/injection, schedule: Q01DX001 (ip), vehicle: carboxymethylcellulose (CMC) 106 % of control | dose: 20.0 mg/kg/injection, schedule: Q01DX001 (ip), vehicle: carboxymethylcellulose (CMC) 104 % of control | dose: 40.0 mg/kg/injection, schedule: Q01DX001 (ip), vehicle: carboxymethylcellulose (CMC) 104 % of control | dose: 80.0 mg/kg/injection, schedule: Q01DX001 (ip), vehicle: carboxymethylcellulose (CMC) 106 % of control

O=S1(=O)CCC(N(N=C2CCCCC2)c2ccccc2)C1 (stereo not given)
inactive: dose: 50.0 mg/kg/injection, schedule: Q01DX009 (ip), vehicle: Klucel (hydroxypropylcellulose) (HPC) 95 % of control | [1] 98 % of control | [2] 106 % of control | [3] 95 % of control

COc1ccc(N=CC(=O)c2ccc(C)cc2)c([N+](=O)[O-])c1
inactive: [4] 107 % of control | [5] 104 % of control | [6] 95 % of control

O=C1C(NCc2c(O)ccc3ccccc23)CON1C(c1ccccc1)(c1ccccc1)c1ccccc1 (stereo not given)
inactive: [7] 89 % of control | dose: 300.0 mg/kg/injection, schedule: Q04DX003 (ip), vehicle: saline 91 % of control

BrC1(Br)C2CC3C(CC21)C1CC2C(CC31)C2(Br)Br (stereo not given)
inactive: [8] 97 % of control | [9] 94 % of control | [10] 96 % of control | [11] 95 % of control | [12] 105 % of control | [13] 92 % of control

CC1(C)C/C(=C\c2ccccc2)C(=O)c2ccccc21
inactive: [9] 107 % of control | [11] 96 % of control | [13] 96 % of control

CC(=O)Nc1ncc(/C=C/C=C/c2ccc([N+](=O)[O-])cc2)c(NC(C)=O)n1
inactive: [4] 91 % of control | [5] 86 % of control | [6] 87 % of control

CC(O)c1cc(Cl)ccc1Cl (stereo not given)
inactive: [8] 87 % of control | [9] 101 % of control and 107 % of control | [10] 103 % of control | [11] 107 % of control | [12] 92 % of control | [13] 98 % of control and 92 % of control

CCOc1ccc(Br)cc1/C=N\N=C\c1cc(Br)ccc1OCC
inactive: dose: 25.0 mg/kg/injection, schedule: Q01DX009 (ip), vehicle: saline 101 % of control | dose: 50.0 mg/kg/injection, schedule: Q01DX009 (ip), vehicle: saline 100 % of control | [14] 100 % of control | [15] 86 % of control

CCC[CH2][Sn]1([CH2]CCC)[O]OC2([O]1)C1CC3CC(C1)CC2C3 (stereo not given)
inactive: dose: 3.0 mg/kg/injection, schedule: Q04DX002 (ip), vehicle: Klucel (hydroxypropylcellulose) (HPC) 90 % of control | dose: 6.0 mg/kg/injection, schedule: Q04DX002 (ip), vehicle: Klucel (hydroxypropylcellulose) (HPC) 108 % of control | dose: 12.0 mg/kg/injection, schedule: Q04DX002 (ip), vehicle: Klucel (hydroxypropylcellulose) (HPC) 108 % of control | dose: 12.5 mg/kg/injection, schedule: Q04DX002 (ip), vehicle: Klucel (hydroxypropylcellulose) (HPC) 101 % of control

NC(CSCc1ccccc1)(CSCc1ccccc1)C(=O)O
inactive: dose: 25.0 mg/kg/injection, schedule: Q01DX009 (ip), vehicle: other 107 % of control | dose: 50.0 mg/kg/injection, schedule: Q01DX009 (ip), vehicle: other 105 % of control | dose: 100.0 mg/kg/injection, schedule: Q01DX009 (ip), vehicle: other 100 % of control | dose: 200.0 mg/kg/injection, schedule: Q01DX009 (ip), vehicle: other 91 % of control | dose: 400.0 mg/kg/injection, schedule: Q01DX009 (ip), vehicle: other 113 % of control

CCCCc1ccc(C(=O)c2ccccc2)c2c1C(=O)c1ccccc1C2=O
inactive: [1] 97 % of control | dose: 100.0 mg/kg/injection, schedule: Q04DX003 (ip), vehicle: Klucel (hydroxypropylcellulose) (HPC) 92 % of control | [2] 94 % of control | dose: 200.0 mg/kg/injection, schedule: Q04DX003 (ip), vehicle: Klucel (hydroxypropylcellulose) (HPC) 92 % of control | [3] 95 % of control | dose: 400.0 mg/kg/injection, schedule: Q04DX003 (ip), vehicle: Klucel (hydroxypropylcellulose) (HPC) 96 % of control

N#CC(=N)C(C#N)=Nc1c(O)[nH]c2ccccc12
inactive: dose: 25.0 mg/kg/injection, schedule: Q01DX001 (ip), vehicle: DMSO 93 % of control | dose: 25.0 mg/kg/injection, schedule: Q01DX009 (ip), vehicle: DMSO 92 % of control | dose: 50.0 mg/kg/injection, schedule: Q01DX001 (ip), vehicle: DMSO 97 % of control | dose: 50.0 mg/kg/injection, schedule: Q01DX009 (ip), vehicle: DMSO 91 % of control | dose: 100.0 mg/kg/injection, schedule: Q01DX001 (ip), vehicle: DMSO 97 % of control and 102 % of control

Cc1c2[n+](cc3ccccc13)C(C)CC(=O)N2 (stereo not given)
inactive: dose: 18.75 mg/kg/injection, schedule: Q01DX009 (ip), vehicle: saline 95 % of control | dose: 37.5 mg/kg/injection, schedule: Q01DX009 (ip), vehicle: saline 95 % of control | dose: 37.5 mg/kg/injection, schedule: Q04DX003 (ip), vehicle: saline 97 % of control | dose: 75.0 mg/kg/injection, schedule: Q01DX001 (ip), vehicle: saline 100 % of control | dose: 75.0 mg/kg/injection, schedule: Q01DX009 (ip), vehicle: saline 94 % of control | [7] 101 % of control | dose: 150.0 mg/kg/injection, schedule: Q01DX001 (ip), vehicle: saline 94 % of control | dose: 150.0 mg/kg/injection, schedule: Q04DX003 (ip), vehicle: saline 104 % of control

CC(O)C1(O)C(O)CC(OC2c3cc4c(c(O)c3[C@@H]3C[C@@]2(C)OC32C=c3cc[nH]c3=N2)C(=O)c2cccc(O)c2C4=O)OC1C (stereo not given in full)
inactive: dose: 0.5 mg/kg/injection, schedule: Q01DX009 (ip), vehicle: saline with Tween-80 101 % of control | dose: 1.0 mg/kg/injection, schedule: Q01DX009 (ip), vehicle: saline with Tween-80 101 % of control | dose: 2.0 mg/kg/injection, schedule: Q01DX009 (ip), vehicle: saline with Tween-80 105 % of control | dose: 2.0 mg/kg/injection, schedule: Q01DX009 (ip), vehicle: saline 112 % of control | dose: 4.0 mg/kg/injection, schedule: Q01DX009 (ip), vehicle: saline with Tween-80 110 % of control | dose: 4.0 mg/kg/injection, schedule: Q01DX009 (ip), vehicle: saline 109 % of control | dose: 8.0 mg/kg/injection, schedule: Q01DX009 (ip), vehicle: saline with Tween-80 103 % of control | dose: 8.0 mg/kg/injection, schedule: Q01DX009 (ip), vehicle: saline 106 % of control | dose: 16.0 mg/kg/injection, schedule: Q01DX009 (ip), vehicle: saline 121 % of control | dose: 32.0 mg/kg/injection, schedule: Q01DX009 (ip), vehicle: saline 104 % of control

CCOC(=O)CCSc1ccc(NC)cc1
inactive: [14] 94 % of control | dose: 100.0 mg/kg/injection, schedule: Q04DX003 (ip), vehicle: acetone 102 % of control | [16] 96 % of control | dose: 200.0 mg/kg/injection, schedule: Q04DX003 (ip), vehicle: acetone 102 % of control | [17] 97 % of control | dose: 400.0 mg/kg/injection, schedule: Q04DX003 (ip), vehicle: acetone 105 % of control

COc1ccc(CN(CCO)C(C)=O)cc1
inactive: [14] 100 % of control | [15] 112 % of control | [16] 105 % of control | dose: 200.0 mg/kg/injection, schedule: Q04DX003 (ip), vehicle: saline 107 % of control | [17] 103 % of control | dose: 400.0 mg/kg/injection, schedule: Q04DX003 (ip), vehicle: saline 119 % of control

NC(=S)N/N=C/c1ccccc1
inactive: dose: 75.0 mg/kg/injection, schedule: Q01DX001 (ip), vehicle: other 103 % of control | dose: 150.0 mg/kg/injection, schedule: Q01DX001 (ip), vehicle: other 105 % of control

O=S1(=O)C2CCC(C2)C1Cl (stereo not given)
inactive: dose: 25.0 mg/kg/injection, schedule: Q01DX009 (ip), vehicle: saline with Tween-80 102 % of control | dose: 50.0 mg/kg/injection, schedule: Q01DX009 (ip), vehicle: saline with Tween-80 101 % of control
